Assay type in all cases: physicochemical
Data set [1] in a line: Precipitation of different acidified tripeptides from aqueous solution heated to reflux and cooled to room temperature. The conditions noted are these: 0.5 mol/L aqueous solution, reflux, cooled to room temperature. An excerpt: Aqueous solutions of different tripeptides acidified to the pH as given in table 2 were heated to reflux temperature. The clear solutions (0.5 mol/L) have been cooled to room temperature.
The fine particles of example 3 formed at the bottom of the vessel have been collected by a filtration over a glass frit filter.

Data set [2] is described as follows: Susceptibility against oxidation by atmospheric oxygen. The settings on record: compared to the corresponding tripeptide Ac-Met-Val-Val-OH.
A short description of data set [3]: Precipitation of the tripeptide from aqueous LiOH solution on acidification with HCl and cooling to 4° C. The settings on record: 54 mg in 0.2 ml 0.1 M aqueous LiOH, pH lowered from 9 with 2M HCl, cooled to 4° C. The protocol:
54 mg Ac-Met(O2)-Val-Val-OH have been dissolved in 0.2 ml 0.1 M aqueous LiOH. A clear solution is formed. The pH was lowered from 9 to the pH as indicated in table 1 by adding 2M HCl and cooled to a temperature of 4° C.
In example 1, a precipitation the tripeptide in fine particles at the bottom of the vessel was observed is formed which was separated by filtration over a glass frit filter.

Data set [4] is described as follows: Precipitation of acidified tripeptide dissolved in water at reflux and cooled to 4° C. (Example 2). The settings on record: pH 1.9; 67.3 g in 500 ml water at reflux, cooled to 4° C. within 2.5 hours, kept 30 minutes. The protocol:
67.3 g acidified Ac-Met(O2)-Val-Val-OH was dissolved in 500 ml water (pH 1.9 of solution) at reflux. The solution was cooled to 4° C. within 2.5 hours and kept at 4° C. during 30 minutes.

The structures appear in SMILES notation. Non-standard residues stand in square brackets, D forms with d. Residues, ends and D or L forms follow the SMILES beside them. Met(O2) = CS(=O)(=O)CC[C@H](N)C(=O)O

Turning to `CC(=O)N[C@@H](CCC(N)=O)C(=O)N1CCC[C@H]1C(=O)N[C@@H](C)C(=O)O` [Ac-Gln-Pro-Ala-OH] (Ac-Gln-Pro-Ala-OH), the Observation after cooling entry in data set [1] (pH 1.5) is listed as “No particles formed”.
Take `CC(=O)N[C@@H](CCS(C)(=O)=O)C(=O)N[C@H](C(=O)N[C@H](C(=O)O)C(C)C)C(C)C` [Ac-Met(O2)-Val-Val-OH] (Ac-[Met(O2)]-Val-Val-OH): the “Susceptibility against oxidation by atmospheric oxygen” value in data set [2] was “significant lower susceptibility against oxidation”. Further, the Observation after cooling entry is “Fine particles formed” in data set [3] (pH 2), “Opaque solution. No particles formed” in data set [3] (pH 3), “fine particles formed” in data set [4] and “Fine particles formed” in data set [1] (pH 2).
For `CC(=O)N[C@@H](CO)C(=O)N1CCC[C@H]1C(=O)N[C@@H](C)C(=O)O` [Ac-Ser-Pro-Ala-OH] (Ac-Ser-Pro-Ala-OH), the Observation after cooling entry in data set [1] (pH 0.9) is “No particles formed”.

For the origin of these results see US20240254164A1, “PURIFICATION OF SPECIFIC TRIPEPTIDE BY ACIDIFICATION” (DSM IP Assets B.V., priority 2021, published 2024).
